Assay results from US20110251238A1, “PPAR AGONIST COMPOSITIONS AND METHODS OF USE” (BIOPHARMED, priority 2008, published 2011).
In brackets after ≈: the same amount, converted by molar mass. Read-outs that look alike come from different tables or passages of the source.

Key:
[1] = test system: KB3 (epitheloid lung cancer) cell lines; test: Cell growth inhibition (cytotoxicity), MTS assay, KB3 cell line; assay type: cell-based; conditions: KB3; Table 3A; MTS assay, triplicate; read-out: KB3 IC50
Experimental: Cell growth inhibition was determined by the MTS assay; the number of viable cells were proportional to the extent of formazan production in the presence or absence of drugs. […]

[2] = test system: A549 (human lung adenocarcinoma epithelial); test: Growth inhibition, MTT colorimetric assay, A549; assay type: cell-based; conditions: carcinoma, 3 days with drug, means of six values, unit inferred, read-out: IC50 A549
Experimental: (§1) A549 (human lung adenocarcinoma epithelial), BxPC3 (pancreatic cancer), LoVo (colon cancer), MCF-7 (epithelial breast cancer), PC3 (human prostate cancer), Hs683 (human glioma), T98G (glioblastoma), U373 (human glioblastoma-astrocytoma), U138 MG (human glioma), epithelial-like), SKMEL28 (human melanoma), B16-F10 (mouse melanoma) and RhTP (rhabdomyosarcoma) cell lines were cultured in presence of the drugs for 3 days. The cytotoxic activity is expressed as (IC50). Inhibition of cell proliferation measured by the MTT colorimetric assay. The values reported in Table 4 are means of six distinct values.

[3] = test system: BxPC3 (pancreatic cancer); test: Growth inhibition, MTT colorimetric assay, BxPC3; assay type: cell-based, human; conditions: carcinoma, 3 days with drug, means of six values, unit inferred, read-out: IC50 BxPC3
Experimental: Cells are cultured at 37° C. in Falcon culture dishes, incubated at 5% CO2 in a suitable culture medium available from Invitrogen Corp. Anti-proliferative activity is determined by an MTT assay (bromide of (3-[4,5-dimethylthiazolium-yl]diphenyltetrazolium)). According to one standard protocol, absorbance is measured at 570 nm (see Dumont et al. (2007) Neoplasia 9: 766-776.
as §1

LoVo (colon cancer) = test: Growth inhibition, MTT colorimetric assay, LoVo; assay type: cell-based; conditions: carcinoma, 3 days with drug, means of six values, unit inferred, read-out: IC50 LoVo
Experimental: as §1

[4] = test system: MCF-7 (epithelial breast cancer); test: Growth inhibition, MTT colorimetric assay, MCF7; assay type: cell-based; conditions: carcinoma, 3 days with drug, means of six values, unit inferred, read-out: IC50 MCF7
Experimental: as §1

[5] = test system: PC3 (human prostate cancer); test: Growth inhibition, MTT colorimetric assay, PC3; assay type: cell-based; conditions: carcinoma, 3 days with drug, means of six values, unit inferred, read-out: IC50 PC3
Experimental: as §1, with “Compounds that met the criteria for activity on KB3 cells were further tested for drug growth inhibitory activity in 5 carcinoma, 6 glioma and 3 melanoma cell lines, shown in Table 4. A549” for “A549”, “values. The standard errors are <5% as compared to the mean values.” for “values.”

Hs683 (human glioma) = test: Growth inhibition, MTT colorimetric assay, HS683; assay type: cell-based; conditions: glioma, 3 days with drug, means of six values, unit inferred, read-out: IC50 HS683
Experimental: as §1

T98G (glioblastoma) = test: cells; assay type: cell-based; conditions: glioma, 3 days with drug, means of six values, unit inferred, read-out: IC50 T98G
Experimental: as §1

[6] = test system: U373 (human glioblastoma-astrocytoma); test: Growth inhibition, MTT colorimetric assay, U373; assay type: cell-based; conditions: glioma, 3 days with drug, means of six values, unit inferred, read-out: IC50 U373
Experimental: as §1, with “Compounds that met the criteria for activity on KB3 cells were further tested for drug growth inhibitory activity in 5 carcinoma, 6 glioma and 3 melanoma cell lines, shown in Table 4. A549” for “A549”, “values. The standard errors are <5% as compared to the mean values.” for “values.”

U138 MG (human glioma) = test: Growth inhibition, MTT colorimetric assay, U138; assay type: cell-based; conditions: glioma, 3 days with drug, means of six values, unit inferred, read-out: IC50 U138
Experimental: as §1, with “Compounds that met the criteria for activity on KB3 cells were further tested for drug growth inhibitory activity in 5 carcinoma, 6 glioma and 3 melanoma cell lines, shown in Table 4. A549” for “A549”, “values. The standard errors are <5% as compared to the mean values.” for “values.”

GL19 = test: Growth inhibition, MTT colorimetric assay, GL19; assay type: cell-based; conditions: 3 days with drug, means of six values, unit inferred, read-out: IC50 GL19
Experimental: as §1, with “Compounds that met the criteria for activity on KB3 cells were further tested for drug growth inhibitory activity in 5 carcinoma, 6 glioma and 3 melanoma cell lines, shown in Table 4. A549” for “A549”, “values. The standard errors are <5% as compared to the mean values.” for “values.”

RhTP (rhabdomyosarcoma) = test: Growth inhibition, MTT colorimetric assay, RhTp; assay type: cell-based; conditions: 3 days with drug, means of six values, unit inferred, read-out: IC50 RhTp
Experimental: as §1, with “Compounds that met the criteria for activity on KB3 cells were further tested for drug growth inhibitory activity in 5 carcinoma, 6 glioma and 3 melanoma cell lines, shown in Table 4. A549” for “A549”, “values. The standard errors are <5% as compared to the mean values.” for “values.”

KaKa = test: Growth inhibition, MTT colorimetric assay, KaKa; assay type: cell-based; conditions: 3 days with drug, means of six values, unit inferred, read-out: IC50 KaKa
Experimental: as §1, with “Compounds that met the criteria for activity on KB3 cells were further tested for drug growth inhibitory activity in 5 carcinoma, 6 glioma and 3 melanoma cell lines, shown in Table 4. A549” for “A549”, “values. The standard errors are <5% as compared to the mean values.” for “values.”

Host = test: Growth inhibition, MTT colorimetric assay, Host; assay type: cell-based; conditions: 3 days with drug, means of six values, unit inferred, read-out: IC50 Host
Experimental: as §1, with “Compounds that met the criteria for activity on KB3 cells were further tested for drug growth inhibitory activity in 5 carcinoma, 6 glioma and 3 melanoma cell lines, shown in Table 4. A549” for “A549”, “values. The standard errors are <5% as compared to the mean values.” for “values.”

SKMEL28 (human melanoma) = test: Growth inhibition, MTT colorimetric assay, SKMEL-28; assay type: cell-based; conditions: melanoma, 3 days with drug, means of six values, unit inferred, read-out: IC50 SKMEL-28
Experimental: as §1, with “Compounds that met the criteria for activity on KB3 cells were further tested for drug growth inhibitory activity in 5 carcinoma, 6 glioma and 3 melanoma cell lines, shown in Table 4. A549” for “A549”, “values. The standard errors are <5% as compared to the mean values.” for “values.”

B16-F10 (mouse melanoma) = test: Growth inhibition, MTT colorimetric assay, B16F10; assay type: cell-based; conditions: melanoma, 3 days with drug, means of six values, unit inferred, read-out: IC50 B16F10
Experimental: as §1, with “Compounds that met the criteria for activity on KB3 cells were further tested for drug growth inhibitory activity in 5 carcinoma, 6 glioma and 3 melanoma cell lines, shown in Table 4. A549” for “A549”, “values. The standard errors are <5% as compared to the mean values.” for “values.”

[7] = test system: bloodstream forms of T. brucei and T. congolense; test: Trypanocidal activity in vitro, Alamar Blue assay; assay type: cell-based, Trypanosoma brucei and T. congolense; conditions: 48 h total incubation
Description: Trypanosoma brucei and T. congolense are the causative agents of sleeping sickness in humans and nagana in cattle, respectively. The protozoan parasites live extracellularlyin blood and tissue fluids of mammals and are transmitted by the bite of infected tsetse flies (Glossina spp.). Here the trypanocidal activity against bloodstream forms of T. brucei and T. congolense of bis-8-hydroxy quinoline N-substituted benzylamines derivatives was investigated in vitro, according to methods described in. Steverding et al. (2006) Kinetoplastid Biology and Disease, 5(3): 1-5; Hongmance et al., (2007) Antimicrob. Agents Chemother. 51:1105-1106; and Zhao et al., (2005) Bio-org. Med. Chem.; 13: 3921-3926. Cells were seeded into 96-well tissue culture plates in 200 μl medium containing various concentrations of analogues dissolved in H2O. The controls contained the respective solvent alone. […] After 24 h (trypanosomes) or 43 h (HL-60) incubation, 20 μl of the colorimetric viability indicator Alamar Blue® was added to each well. The cells were incubated for a further 24 h (trypanosomes) or 5 h (HL-60) so that the total incubation time was 48 h. Then, the plates were read on a Dynatech MR5000ELISA reader (Denkendorf, Germany),using a test wavelength of 550 nm and a reference wave length of 630 nm. Each test was set up in duplicate and repeated three times. For comparison, the general cytotoxicity of the compounds was assayed with human myeloid leukaemia HL-60 cells. The anti-trypanosomal activities and the general cytotoxicities of the new analogues were evaluated using the Alamar Blue® assay.

Structure (SMILES)	IC50 ([2]; Homo sapiens, A549, 72 h) [nM]	IC50 ([3]; Homo sapiens, BXPC-3, 72 h) [nM]	IC50 (LoVo (colon cancer); Homo sapiens, LoVo, 72 h) [nM]	IC50 ([4]; Homo sapiens, MCF7, 72 h) [nM]	IC50 ([5]; Homo sapiens, 72 h) [nM]	IC50 (Hs683 (human glioma); Homo sapiens, Hs 683, 72 h) [nM]	IC50 (T98G (glioblastoma); Homo sapiens, T98G, 72 h) [nM]	IC50 ([6]; Homo sapiens, U373 MG, 72 h) [nM]	IC50 (U138 MG (human glioma); Homo sapiens, U138-MG, 72 h) [nM]	IC50 (GL19; GL19, 72 h) [nM]	IC50 (RhTP (rhabdomyosarcoma); 72 h) [nM]	IC50 (KaKa; 72 h) [nM]	IC50 (Host; 72 h) [nM]	IC50 (SKMEL28 (human melanoma); Homo sapiens, SK-MEL-28, 72 h) [nM]	IC50 (B16-F10 (mouse melanoma); Mus musculus, B16-F10, 72 h) [nM]	other results
Oc1ccc(CN(Cc2cccc(I)c2)Cc2ccc(O)c3ncccc23)c2cccnc12 [BPM19,200, 5,5′-(3-iodobenzylazanediyl)bis(methylene)diquinolin-8-ol]	350	3810	393	374	394	479	446	5600	430	> 10000	788	7680	2980	9850	888	IC50 [1]: 1000 nM
Oc1ccc(CN(Cc2ccc(O)c3ncccc23)CC2CCCCC2)c2cccnc12 [BPM19,219, 5,5′-cyclohexylmethylazanediyl-bis-[(methylene)di(quinolin-8-ol)]]	–	–	–	–	–	–	–	–	–	–	–	–	–	–	–	IC50 [2]: 369 nM; IC50 [3]: 3810 nM; IC50 (LoVo (colon cancer)): 357 nM; IC50 [4]: 365 nM; IC50 [5]: 421 nM; IC50 (Hs683 (human glioma)): 584 nM; IC50 (T98G (glioblastoma)): 486 nM; IC50 [6]: 2570 nM; IC50 (U138 MG (human glioma)): 446 nM; IC50 (GL19): 8970 nM; IC50 (RhTP (rhabdomyosarcoma)): 865 nM; IC50 (KaKa): 5940 nM; IC50 (Host): 1540 nM; IC50 (SKMEL28 (human melanoma)): > 10000 nM; IC50 (B16-F10 (mouse melanoma)): 873 nM; GI50 ([7]; 50% growth inhibition, read-out: GI50): 2950 ± 180 nM; MIC ([7]; lowest concentration at which all cells were killed, read-out: MIC): 10 µM (≈ 4.28 µg/mL)
O=C(O)C1CCC(CN(Cc2ccc(O)c3ncccc23)Cc2ccc(O)c3ncccc23)CC1 (stereo not drawn) [BPM19,225, 4-((bis((8-hydroxyquinolin-5-yl)methyl)amino)-methyl)cyclohexanecarboxylic acid]	661	4340	422	9460	993	2860	9760	3730	> 10000	7600	> 10000	> 10000	> 10000	> 10000	> 10000	–
